Experimental data published in paper PMC4910235, “Selenophene and thiophene-core estrogen receptor ligands that inhibit motility and development of parasitic stages of Haemonchus contortus” (Parasites & Vectors, 2016).
Read-outs that look alike come from different tables or passages of the source.

Columns and labels:
[1] = test system: fourth-stage larvae (L4s) of H. contortus; assay: L4 motility assay; format: cell-based
Procedure: The selenophene and thiophene-core ligands (n = 74) (Additional file 1) were screened at a concentration of 20 μM on exsheathed third-stage larvae (xL3s) of H. contortus in 96-well microculture plates (cat. no. 3635; Corning 3650, Life Sciences, Corning, USA) using relevant control compounds (i.e. moxidectin and monepantel), as described previously. In brief, compounds were dissolved to a stock concentration of 10 mM in either dimethyl sulfoxide (DMSO) or methanol (Sigma-Adrich Scientific, St. Louis, USA). These ligands were then individually diluted to the final concentration of 20 μM using Luria Bertani medium (LB) supplemented with 100 IU/ml of penicillin, 100 μg/ml of streptomycin and 2.5 μg/ml of amphotericin (LB*). Compounds were dispensed (in triplicate) into the wells of a 96-well microculture plate using a multichannel pipette. In addition, the negative controls (LB*, LB* + 0.5 % solvent; six wells each), and positive controls (20 μM of monepantel; Zolvix, Novartis Animal Health, Basel, Switzerland and 20 μM of moxidectin; Cydectin, Virbac, Carros, France; triplicate wells) and xL3s (~300/well) were dispensed into wells of the plate using an automated multichannel pipette (Viaflo Assist/II, Integra Biosciences, Zizers, Switzerland). […], a video recording (5 s) was taken of each well of the 96-well microculture plate (containing xL3s) using a greyscale camera (Rolera Bolt CMOS, Qimaging Scientific, Surrey, Canada) and a motorised X-Y axis stage (BioPoint 2, Ludl Electronics Products, Hawthorne, USA). Individual videos were processed to calculate a motility index (MI) using an algorithm described previously. MIs were normalised to the negative and positive controls (to remove plate-to-plate variation) using the program Prism (v.6 GraphPad Software, USA). Z’-scores were calculated to validate the performance of the screening assay; reliable assays achieve Z’-scores of between 0.5 and 1 [28]. […] Compounds that reduced the motility of xL3s were also tested for their ability to inhibit the motility of L4s (same protocol as for xL3s) and/or to affect the development of xL3s to L4s. Following the measurement of L4 motility, larvae were re-incubated for 4 more days and fixed with 1 % iodine (50 μl). Then, L4 development was assessed based on the presence of a well-developed mouth/pharynx using a light microscope and expressed as a percentage of the total number of larvae examined (n = 30).
All assays (to assess xL3 motility, L4 development and L4 motility) were performed in triplicate, three times, on separate days.

[2] = test system: L4 stage of H. contortus; assay: Scanning electron microscopy of treated L4s; format: cell-based, Haemonchus contortus; settings: 100 μM, 24 h
Procedure: (§1) SEM was used to assess whether compounds that reduced motility by ≥ 70 % caused structural damage to the larval stages. The xL3s and L4s were cultivated as described previously. Compounds were diluted to a final concentration of 100 μM in LB*, and 50 μl were transferred to wells of a 96-well microculture plate; six wells were used for each treatment and for the negative control which contained LB* and 1 % methanol (AR1115-P2.5 L, RCI; Labscan Limited). The xL3s and L4s were resuspended in LB* at a density of ~6,000 per ml, and 50 μl were transferred into individual wells. Compounds were incubated with the larvae for 24 h at 38 °C and 10 % CO2. Following incubation, for each treatment, the larvae from each of the six wells were pooled into 1.5 ml Eppendorf tubes, washed 3 times in 0.9 % saline at 9,000 g and resuspended in 1 ml of phosphate-buffered saline (PBS). Subsequently, the larvae were fixed in 2.5 % glutaraldehyde in PBS for 2 h at room temperature, rinsed three times in PBS for 15 min, and then post-fixed in 1 % osmium tetroxide for 2 h at room temperature. Fixed larvae were rinsed again 3 times in PBS for 15 min. Then, aliquots of concentrated larvae (200 μl) were incubated on polyethyleneimine (PEI)-coated glass coverslips (pre-prepared by smearing 22 mm square glass coverslips with a 0.1 % solution of PEI and dried by heat under a cool flame). Following this incubation, the excess supernatant was removed, and the coverslips with adhered nematodes were dehydrated in increasing concentrations of ethanol (10, 30, 50, 70, 90 and 100 %) in water for 30 min. The coverslips were dried in a critical point dryer (EM CPD030, Leica, Wetzlar, Germany) and mounted on to aluminium stubs (25 mm) with double-sided carbon tabs. The coverslips were then coated with gold using a Xenosput sputter coater (Dynavac, Australia). The larvae on the coverslips were imaged using a field-emission scanning electron microscope (XL30 Philips, Netherlands) at 2.0 kV using a spot size of two; 12 representative images were taken of each sample.

[3] = test system: xL3 stage of H. contortus; assay: Scanning electron microscopy of treated xL3s; format: cell-based, Haemonchus contortus; settings: 100 μM, 24 h
Procedure: as §1

[4] = Haemonchus contortus, 24 h; read-out: L4 motility (IC50s in μM)
[5] = Haemonchus contortus, 48 h; read-out: L4 motility (IC50s in μM)
[6] = Haemonchus contortus, 72 h; read-out: L4 motility (IC50s in μM)

| Structure (SMILES) | IC50 [1, 4] [µM] | IC50 [1, 5] [µM] | IC50 [1, 6] [µM] | IC50 ([1]; Haemonchus contortus; read-out: L4 motility IC50 at both 48 h and 72 h) [µM] | cuticle damage of L4s by SEM [2] | structural damage of xL3s by SEM [3] | IC50 ([1]; Haemonchus contortus, 24 h, read-out: L4 motility (IC50s in μM)) [µM] | IC50 ([1]; Haemonchus contortus, 48 h, read-out: L4 motility (IC50s in μM)) [µM] | IC50 ([1]; Haemonchus contortus, 72 h, read-out: L4 motility (IC50s in μM)) [µM] |
| --- | --- | --- | --- | --- | --- | --- | --- | --- | --- |
| Oc1ccc(-c2cscc2-c2ccc(O)cc2Cl)c(Cl)c1 [MJ-17] | 13.9 | 6.2 | 6.1 | 6.1 to 6.2 | distinct damage | no structural damage |  |  |  |
| Cc1cc(O)ccc1-c1ccc(-c2ccc(O)cc2F)s1 [MJ-22] | 6.4 | 3.2 | 6.2 |  | distinct damage | no structural damage |  |  |  |
| C[C@](C#N)(COc1cc(C#N)ccc1C(F)(F)F)NC(=O)c1ccc(SC(F)(F)F)cc1 [Monepantel, reference compound] | 4.3 | 2.2 | 3 |  | cuticle damage |  |  |  |  |
| CO/N=C1\C[C@]2(C[C@@H]3C[C@@H](C/C=C(\C)C[C@@H](C)/C=C/C=C4\CO[C@@H]5[C@H](O)C(C)=C[C@@H](C(=O)O3)[C@]45O)O2)O[C@H](/C(C)=C/C(C)C)[C@H]1C [Moxidectin, reference compound] | 2.2 | 0.6 | 0.0045 |  | did not induce any cuticle damage |  |  |  |  |
| Oc1ccc(-c2ccc(-c3ccc(O)cc3Cl)[se]2)c(Cl)c1 [WZY-2] |  |  |  |  | distinct damage | no structural damage | 9.3 | 6.1 | 6.2 |
